Results as given in patent US20260061084A1, “FIBROBLAST ACTIVATION PROTEIN (FAP) INHIBITORS, FAP CONJUGATES, AND DIAGNOSTIC AND THERAPEUTIC USES THEREOF” (Nuclidium AG, priority 2022, published 2026).

Legend:
[1] = system: HT-1080.hFAP (FAP-positive) cells; experiment: In vitro cellular uptake (cell surface-bound and internalized fractions); format: cell-based, human; details: 37° C., specific uptake (HT-1080.wt subtracted)
Protocol: The cellular uptake was studied in vitro using intact cells seeded in 6-well plates overnight. […] At each investigated time point, the medium containing the unbound (free) radiotracer was removed, followed by two washing steps with ice-cold phosphate-buffered saline. The cells were then treated 2×5 min with ice-cold glycine solution (0.05 M, pH 2.8) to detach the cell surface-bound radiotracer (acid released). Afterwards, the cells containing the internalized radiotracer were detached with 1 M NaOH at 37° C. and collected for measurement. The amount of specific cell surface-bound and internalized radiotracer is expressed as percentage of the total applied activity, after subtracting the non-specific values.
The cells were then preconditioned in 360 μL of assay medium (MEM medium without supplements) at 37° C. for 60 min. 40 μL of a 2 nM solution of ^61Cu-labeled radioligand was added and the cells were incubated at 37° C. The cellular uptake was interrupted at different time points (15 min, 1 hour and 4 hours), by washing twice with ice-cold PBS. Cell surface-bound radioligand was obtained by washing cells twice with ice-cold glycine buffer (pH 2.8), followed by a collection of the internalized fraction with 1 M NaOH. The activity in each fraction was measured in a […] (Cobra II).

[2] = system: HT-1080.hFAP tumor-bearing mice; experiment: Biodistribution studies in xenografted mice; format: in vivo; details: i.v.; for Biodistribution: HT-1080.wt: FAP-negative tumor; for Biodistribution: HT-1080.hFAP: FAP-positive tumor
Protocol: The tumors were allowed to grow to an average volume of 100-200 mm^3.
Biodistribution Studies: The xenografted mice were randomized (n=5 per group) and injected intravenously via the tail vein with the ^61Cu-labeled radioligands (100 μL, […], 0.8-1MBq). Mice were euthanized 1 h and 4 h p.i. by CO2 asphyxiation. Organs of interest and blood were collected, rinsed of excess blood, blotted dry, weighed, and counted in a […]. The samples were counted against a suitably diluted aliquot of the injected solution as the standard and the results are expressed as the percentage of the injected activity per gram of tissue (% I.A./g) ±SD.

[3] = system: Mice bearing FAP-positive and FAP-negative xenografts; experiment: PET/CT imaging: remaining PET activity in the mouse body; format: in vivo
Protocol: The mice were euthanized by CO2 at 4 hours p.i., and static PET scans were acquired for 30 min.
PET/CT images were acquired using β-CUBE PET scanner system (Molecubes, Gent, Belgium), with a spatial resolution of 0.85 mm and an axial field-of-view of 13 cm. Dynamic PET scans were acquired for 60 min. All PET scans were decay corrected and reconstructed into a 192×192×384 matrix by an ordered subsets maximization expectation (OSEM) algorithm using 30 iterations, a voxel size of 400×400×400 μm a 15 min per frame. CT data was used to apply attenuation correction on the PET data. The CT was imaged supine, head first, using the NanoSPECT/CTTM scanner (Bioscan Inc.). Topograms and helical CT scans of the whole mouse were first acquired using the following parameters: X-ray tube current: 177 μA, X-ray tube voltage 45 kVp, 90 seconds and 180 frames per rotation, pitch 1. CT images were reconstructed using CTReco (version r1.146), with a standard filtered back projection algorithm (exact cone beam) and post-filtered (RamLak, 100% frequency cut-off), resulting in a pixel size of 0.2 mm. Co-registered PET/CT images were visualized using maximum intensity projection (MIP) with VivoQuant software (version 4.0).

- Biodistribution: Intestine ([2]; 1 hour p.i.): 1.0 ± 0.4 % I.A./g
- Biodistribution: Liver ([2]; 1 hour p.i.): 0.9 ± 0.0 % I.A./g
- Biodistribution: Pancreas ([2]; 1 hour p.i.): 2.0 ± 0.2 % I.A./g
- Biodistribution: Spleen ([2]; 1 hour p.i.): 0.7 ± 0.1 % I.A./g
- Biodistribution: Stomach ([2]; 1 hour p.i.): 1.0 ± 0.1 % I.A./g
- Biodistribution: Adrenal ([2]; 4 hours p.i.): 2.0 ± 0.2 % I.A./g
- Biodistribution: Heart ([2]; 4 hours p.i.): 0.7 ± 0.1 % I.A./g
- Biodistribution: Intestine ([2]; 4 hours p.i.): 0.6 ± 0.2 % I.A./g
- Biodistribution: Kidneys ([2]; 4 hours p.i.): 1.0 ± 0.1 % I.A./g
- Biodistribution: Liver ([2]; 4 hours p.i.): 0.8 ± 0.2 % I.A./g
- Biodistribution: Lung ([2]; 4 hours p.i.): 1.0 ± 0.1 % I.A./g
- Biodistribution: Spleen ([2]; 4 hours p.i.): 0.5 ± 0.1 % I.A./g
- Biodistribution: Stomach ([2]; 4 hours p.i.): 0.6 ± 0.1 % I.A./g
- Biodistribution: HT-1080.wt ([2]; 1 hour p.i.): 3.1 ± 0.0 % I.A./g
- Biodistribution: HT-1080.wt ([2]; 4 hours p.i.): 2.5 ± 0.2 % I.A./g
- Biodistribution: HT-1080.hFAP ([2]; 1 hour p.i.): 8.4 ± 1.4 % I.A./g
- Biodistribution: HT-1080.hFAP ([2]; 4 hours p.i.): 7.7 ± 0.4 % I.A./g
- Retention in the body (remaining PET activity 4 h p.i.), in words [3]: highest retention in the body
SMILES: CN(CCCN1CCN(C(=O)CCC(C(=O)O)N2CCN(CC(=O)[O-])CCN(CC(=O)[O-])CC2)CC1)c1ccc2nccc(C(=O)NCC(=O)N3CC(F)(F)CC3C#N)c2c1.[61Cu+2] (stereo not drawn) [[^61Cu]Cu-NODAGA-FAPI-46, reference compound]
- Cell surface fraction ([1]; 15 min): 0.9 ± 0.3 % of the applied activity
- Internalized fraction ([1]; 30 min): 24.3 ± 2.3 % of the applied activity
- Cell surface fraction ([1]; 60 min): 1.2 ± 0.4 % of the applied activity
- Internalized fraction ([1]; 60 min): 36.1 ± 1.6 % of the applied activity
- Cell surface fraction ([1]; 240 min): 1.7 ± 0.4 % of the applied activity
- Internalized fraction ([1]; 240 min): 50.0 ± 6.0 % of the applied activity
